Results reported in patent US8389557B2, “Triazole derivatives useful as Axl inhibitors” (Rigel Pharmaceuticals, Inc., priority 2005, dated 2013).

Molecular target: T1, Axl (Homo sapiens, UniProt P30530)
T1 construct: endogenous in cells; host or cells: HeLa cells
T1 sequence (P30530 26-894): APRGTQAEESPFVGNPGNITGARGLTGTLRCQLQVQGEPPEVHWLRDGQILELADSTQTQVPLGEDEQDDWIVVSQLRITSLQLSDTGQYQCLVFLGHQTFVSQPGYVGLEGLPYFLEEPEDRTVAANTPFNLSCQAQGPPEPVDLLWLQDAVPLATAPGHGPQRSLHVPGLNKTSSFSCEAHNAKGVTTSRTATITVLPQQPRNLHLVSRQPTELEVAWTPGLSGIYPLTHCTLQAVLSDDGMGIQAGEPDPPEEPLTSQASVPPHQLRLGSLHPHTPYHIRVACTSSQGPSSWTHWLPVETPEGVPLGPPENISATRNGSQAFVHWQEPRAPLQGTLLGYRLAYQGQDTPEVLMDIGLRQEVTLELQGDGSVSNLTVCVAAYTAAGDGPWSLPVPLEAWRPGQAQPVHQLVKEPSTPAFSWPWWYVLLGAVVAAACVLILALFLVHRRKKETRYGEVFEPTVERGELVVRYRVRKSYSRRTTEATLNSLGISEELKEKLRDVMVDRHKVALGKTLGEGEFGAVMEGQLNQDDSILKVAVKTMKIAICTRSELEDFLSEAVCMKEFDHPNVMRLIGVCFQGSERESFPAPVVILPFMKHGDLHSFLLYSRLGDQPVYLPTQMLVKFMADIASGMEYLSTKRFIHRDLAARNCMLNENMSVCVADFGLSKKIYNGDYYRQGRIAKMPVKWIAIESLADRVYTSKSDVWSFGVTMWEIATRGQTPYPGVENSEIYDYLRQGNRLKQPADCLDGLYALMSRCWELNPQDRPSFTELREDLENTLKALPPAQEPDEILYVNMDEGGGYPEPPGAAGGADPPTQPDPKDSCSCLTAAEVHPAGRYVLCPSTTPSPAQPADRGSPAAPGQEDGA
Experiment: Phospho-Akt in-cell Western assay (inhibition of Axl activity)
Assay type: cell-based
Procedure, shortened: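 HeLa cells on poly-L-lysine, starved 24 h in 0.5% FCS DMEM with Axl/Fc 500 ng/mL, pre-treated with compound 1 h at 37° C. Axl stimulated 5 min by anti-Axl/anti-mouse antibody cross-linking. Fixed cells probed with anti-phospho-Akt and HRP secondary, chemiluminescence read.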

[1] = Table 7, Hela cells, Axl antibody cross-linking stimulation, phospho-Akt chemiluminescence
[2] = inhibition of Axl activity, phospho-Akt in-cell Western assay, Table 1
[3] = Table 3, Hela cells, Axl antibody cross-linking stimulation, phospho-Akt chemiluminescence
[4] = inhibition of Axl activity, Table 1
[5] = Table 2, Hela cells, Axl antibody cross-linking stimulation, phospho-Akt chemiluminescence

`Cc1cccc(C(=O)n2nc(Nc3ccc4c(cnn4C)c3)nc2N)c1` [compound 227, 5-amino-3-[1-methyl-1H-indazol-5-yl]amino-1-(3-methylphenyl)carbonyl-1H-1,2,4-triazole] was tested. Which IC50 (Table 5, Hela cells, Axl antibody cross-linking stimulation, phospho-Akt chemiluminescence) did it give?
The IC50 was 1000 to 10000 nM.

Which IC50 [1] does the source give for `CC(=O)N(C)c1ccc(Nc2nc(N)n(C(=O)Nc3ccc(C(C)C)cc3)n2)cc1` [compound 179, 3-[4-(acetyl(methyl)amino)phenyl]amino-5-amino-N-(4-(iso-propyl)phenyl)-1H-1,2,4-triazole-1-carboxamide] here?
Its IC50 is 1000 to 10000 nM.

With `NC(=O)C1C2C=CC(C2)C1Nc1nc(N)nn1C(=O)c1ccc2cc[nH]c2c1` (centres unmarked) [compound 355, 3-amino-1-(1H-indol-6-yl)carbonyl-5-[(3-(aminocarbonyl)bicyclo[2.2.1]hept-5-en-2-yl)amino]-1H-1,2,4-triazole] as the compound, how does the IC50 (Table 10, Hela cells, Axl antibody cross-linking stimulation, phospho-Akt chemiluminescence) read?
The IC50 was > 20000 nM.

Which IC50 [1] does the source give for `Nc1nc(Nc2ccc(OCCN3CCCC3)cc2)nn1C(=S)Nc1c(F)cc(F)cc1F` [compound 325, 5-amino-N-(2,4,6-trifluorophenyl)-3-[4-[2-(pyrrolidin-1-yl)ethoxy]phenylamino]-1H-1,2,4-triazole-1-carbothioamide] here?
The IC50 was 1000 to 10000 nM.

With `Nc1nc(Nc2ccc(OCCN3CCCC3=O)cc2)nn1C(=O)c1ccc(-c2csnn2)cc1` [compound 338, 5-amino-1-(4-(1,2,3-thiadiazol-4-yl)phenyl)carbonyl-3-[4-[2-(pyrrolidin-2-on-1-yl)ethoxy]phenylamino]-1H-1,2,4-triazole] as the compound, how does the IC50 [2] read?
Its IC50 is 1000 to 10000 nM.

How did the IC50 [3] turn out when `Nc1nc(Nc2ccc(OCCN3CCCC3)cc2)nn1C(=O)c1ccc2sccc2c1` [compound 369, 5-amino-1-(benzo[b]thiophen-5-yl)carbonyl-3-[4-[2-(pyrrolidin-1-yl)ethoxy]phenylamino]-1H-1,2,4-triazole] was run?
The IC50 was < 1000 nM.

Which IC50 [4] does the source give for `Nc1nc(Nc2ccc(OCCN3CCCCC3)cc2)nn1C(=O)c1ccc(C2CCCCC2)cc1` [compound 62, 5-amino-1-(4-(cyclohexyl)phenyl)carbonyl-3-[4-[2-(piperidin-1-yl)ethoxy]phenylamino]-1H-1,2,4-triazole] here?
The IC50 was 1000 to 10000 nM.

With `Cc1ccc(C(=O)n2nc(Nc3ccc4c(c3)OCCO4)nc2N)cc1C` [compound 234, 5-amino-1-(3,4-dimethylphenyl)carbonyl-3-(1,4-benzodioxan-6-yl)amino-1H-1,2,4-triazole] as the compound, how does the IC50 [4] read?
Its IC50 is 1000 to 10000 nM.

`CN(C)c1ccc(C(=O)n2nc(Nc3ccc(OCCN4CCCCC4)cc3)nc2N)cc1` [compound #2, 5-Amino-1-(4-(dimethylamino)phenyl)carbonyl-3-[4-[2-(piperidin-1-yl)ethoxy]phenylamino]-1H-1,2,4-triazole] was tested. Which IC50 [2] did it give?
The IC50 was < 1000 nM.

Which IC50 [3] does the source give for `CC1(C)Oc2ccc(C(=O)n3nc(Nc4ccc(N5CCCC5)cc4)nc3N)cc2NC1=O` [compound 295, 5-amino-1-(2,2-dimethyl-2H-benzo[b][1,4]oxazin-3(4H)-on-6-yl)carbonyl-3-[4-(pyrrolidin-1-yl)phenylamino]-1H-1,2,4-triazole] here?
Its IC50 is 1000 to 10000 nM.

How did the IC50 [5] turn out when `CSc1ccc(C(=O)n2nc(N)nc2Nc2ccc3c(c2)OCCO3)cc1` [compound 238, 3-amino-5-(1,4-benzodioxan-6-yl)amino-1-(4-thiomethylphenyl)carbonyl-1H-1,2,4-triazole] was run?
Its IC50 is > 20000 nM.

With `CC(C)(C)Oc1ccc(C(=O)n2nc(N)nc2Nc2ccc(N3CCOCC3)cc2)cc1` [compound 58, 3-amino-5-(4-(morpholin-4-yl)phenylamino)-1-(4-(tert-butoxy)phenyl)carbonyl-1H-1,2,4-triazole] as the compound, how does the IC50 [5] read?
Its IC50 is > 20000 nM.

How did the IC50 [2] turn out when `CC(C)Oc1ccc(C(=O)n2nc(Nc3ccc(N4CCCC4)cc3)nc2N)cc1` [compound 293, 5-amino-1-(4-(iso-propoxy)phenyl)carbonyl-3-[4-(pyrrolidin-1-yl)phenylamino]-1H-1,2,4-triazole] was run?
The IC50 was 1000 to 10000 nM.

For `Nc1nc(Nc2ccc(OCCN3CCCC3)cc2)nn1C(=O)c1ccc(N2CCS(=O)(=O)CC2)cc1` [compound 400, 5-amino-1-(4-(1,1-dioxo-thiomorpholin-4-yl)phenyl)carbonyl-3-[4-[2-(pyrrolidin-1-yl)ethoxy]phenylamino]-1H-1,2,4-triazole], which IC50 [2] is on record?
The IC50 was < 1000 nM.

Which IC50 [2] does the source give for `Nc1nc(Nc2ccc(OCCN3CCCC3)cc2)nn1C(=O)c1ccc(Oc2ccccc2)cc1` [compound 269, 5-amino-1-(4-(phenoxy)phenyl)carbonyl-3-[4-[2-(pyrrolidin-1-yl)ethoxy]phenylamino]-1H-1,2,4-triazole] here?
The IC50 was < 1000 nM.

With `CC(C)(C)c1ccc(C(=O)n2nc(Nc3ccc(OCCN4CCCC4)cc3)nc2N)cc1` [compound 302, 5-amino-1-(4-(tert-butyl)phenyl)carbonyl-3-[4-[2-(pyrrolidin-1-yl)ethoxy]phenylamino]-1H-1,2,4-triazole] as the compound, how does the IC50 [2] read?
Its IC50 is < 1000 nM.

For `CC(C)(C)Oc1ccc(C(=O)n2nc(Nc3ccc(OCCN4CCCC4)c(F)c3)nc2N)cc1` [compound 305, 5-amino-1-(4-(tert-butoxy)phenyl)carbonyl-3-[3-fluoro-4-[2-(pyrrolidin-1-yl)ethoxy]phenylamino]-1H-1,2,4-triazole], which IC50 [2] is on record?
The IC50 was < 1000 nM.

Which IC50 [2] does the source give for `CSc1ccc(C(=O)n2nc(Nc3ccc(OCCN4CCCC4)cc3)nc2N)cc1` [compound 287, 5-amino-1-(4-(methylthio)phenyl)carbonyl-3-[4-[2-(pyrrolidin-1-yl)ethoxy]phenylamino]-1H-1,2,4-triazole] here?
Its IC50 is < 1000 nM.

How did the IC50 [3] turn out when `Nc1nc(Nc2ccc(OCCn3ccnc3)cc2)nn1C(=O)c1ccc2cc[nH]c2c1` [compound 375, 5-amino-1-(1H-indol-6-yl)carbonyl-3-[4-[2-(imidazol-1-yl)ethoxy]phenylamino]-1H-1,2,4-triazole] was run?
The IC50 was < 1000 nM.

With `Cc1cccc(C(=O)n2nc(Nc3cccc(OCC(=O)NC4CCCCC4)c3)nc2N)c1` [compound 165, 5-amino-3-[3-[cyclohexylaminocarbonylmethoxy]phenylamino]-1-(3-(methyl)phenyl)carbonyl-1H-1,2,4-triazole] as the compound, how does the IC50 [4] read?
The IC50 was > 20000 nM.

For `CN(C)c1ccc(C(=O)n2nc(Nc3ccc(OCCN4CCCC4)cc3)nc2N)cc1` [compound #4, 5-Amino-1-(4-(dimethylamino)phenyl)carbonyl-3-[4-[2-(pyrrolidin-1-yl)ethoxy]phenylamino]-1H-1,2,4-triazole], which IC50 [2] is on record?
Its IC50 is < 1000 nM.

With `CN(C)c1ccc(C(=O)n2nc(Nc3ccc(OCCCN4CCCC4)cc3)nc2N)cc1` [compound #8, 5-Amino-1-(4-(dimethylamino)phenyl)carbonyl-3-[4-[3-(pyrrolidin-1-yl)propoxy]phenylamino]-1H-1,2,4-triazole] as the compound, how does the IC50 [2] read?
Its IC50 is < 1000 nM.

Which IC50 [1] does the source give for `Cc1ccc(NC(=O)n2nc(Nc3ccc(OCCN4CCCCC4)cc3)nc2N)cc1C` [compound 38, 5-amino-N-(3,4-(dimethyl)phenyl)-3-[4-[2-(piperidin-1-yl)ethoxy]phenylamino]-1H-1,2,4-triazole-1-carboxamide] here?
The IC50 was 1000 to 10000 nM.

Which IC50 [2] does the source give for `CC(C)Oc1ccc(C(=O)n2nc(Nc3ccc(N4CCN(C)CC4)cc3)nc2N)cc1` [compound 359, 5-amino-1-(4-(iso-propoxy)phenyl)carbonyl-3-[4-(4-methylpiperazin-1-yl)phenylamino]-1H-1,2,4-triazole] here?
Its IC50 is < 1000 nM.

Which IC50 [5] does the source give for `CC(C)(C)Oc1ccc(C(=O)n2nc(N)nc2Nc2ccc(N3CCCC3)cc2)cc1` [compound 292, 3-amino-1-(4-(tert-butoxy)phenyl)carbonyl-5-(4-(pyrrolidin-1-yl)phenylamino]-1H-1,2,4-triazole] here?
Its IC50 is > 20000 nM.

For `Nc1nc(Nc2ccc3c(c2)OCCO3)nn1C(=O)c1ccc([N+](=O)[O-])cc1` [compound 240, 5-amino-3-(1,4-benzodioxan-6-yl)amino-1-(4-nitrophenyl)carbonyl-1H-1,2,4-triazole], which IC50 [4] is on record?
The IC50 was > 20000 nM.

With `COC(=O)c1cccc(C(=O)n2nc(Nc3ccc(OCCN4CCCCC4)cc3)nc2N)c1` [compound 79, 5-amino-1-(3-(methoxycarbonyl)phenyl)carbonyl-3-[4-[2-(piperidin-1-yl)ethoxy]phenylamino]-1H-1,2,4-triazole] as the compound, how does the IC50 [4] read?
Its IC50 is 1000 to 10000 nM.

With `Nc1nc(Nc2ccc(OCCN3CC[C@H](F)C3)cc2)nn1C(=O)c1ccc2cc[nH]c2c1` [compound 388, 5-amino-1-(1H-indol-6-yl)carbonyl-3-[4-[2-((S)-3-fluoropyrrolidin-1-yl)ethoxy]phenylamino]-1H-1,2,4-triazole] as the compound, how does the IC50 [3] read?
Its IC50 is < 1000 nM.

`COc1ccccc1Nc1nc(N)n(C(=O)c2ccc(C)cc2)n1` [compound 143, 5-amino-3-[2-(methoxy)phenylamino]-1-(4-(methyl)phenyl)carbonyl-1H-1,2,4-triazole] was tested. Which IC50 [4] did it give?
Its IC50 is > 20000 nM.
